Reference: US20150190461A1, “DOSING INSTRUCTIONS FOR ENDOTOXIN-BINDING LIPOPEPTIDES” (priority 2012, published 2015)

Experiments:
[1] = human, in vivo; cited from earlier work
blood cells = assay: Cytokine batch (batch test II): cytokine release by blood cells in LPS-spiked plasma; type: cell-based; settings: PMB 250, 500, 1000 ng/ml; plasma spiked with LPS (E. coli); 4 hours of incubation
Description: Also to be studied is to what extent this endotoxin elimination has the consequence of inhibiting the release of cytokines (batch test II).
A blood donation was taken in 9 blood-donation tubes (9 ml each) and spiked with 5 IU heparin. The plasma was centrifuges, and the cell pellet as incubated on the rolling mixer. The plasma was spiked with LPS and used for batch test I: […]

Row | Substance | serum half-life [1] | inhibition of cytokine release (TNF-alpha, IL-1beta, IL-6, IL-8) by the blood cells (blood cells) | inhibition of the key mediator TNF-alpha (blood cells)
1 | colistin | 6 to 7.4 h |  | 
2 | polymyxin B [PMB] |  | strong inhibition | especially pronounced
